Results on one compound are retold here after publication PMC5641330, “Prediction of a Therapeutic Dose for Buagafuran, a Potent Anxiolytic Agent by Physiologically Based Pharmacokinetic/Pharmacodynamic Modeling Starting from Pharmacokinetics in Rats and Human” (Frontiers in Pharmacology, 2017).

Data set [1] deals with male Wistar rats. Put plainly: Elevated plus-maze (EPM) test in the rat, with sigmoid Emax PK/PD fit. The data set is classed as in vivo. On the procedure: Anxiolytic activity of buagafuran was evaluated by EPM model. The rat EPM consisted of two open arms (50 cm × 10 cm) and two closed arms (50 cm × 10 cm × 40 cm) extending from the central platform (10 cm × 10 cm), the maze rising from the floor by 50 cm.
Male Wistar rats, weighing between 130 and 160 g, were handled daily for 1 week prior to the study and were fasted for 12 h before experiment. Group I: the treated rats received buagafuran formulation of PVP (2, 4, and 8 mg/kg) via the oral route, while the rats that served as control group received vehicle (PVP). Experiments were carried out 10 min after oral administration of drugs or vehicles. Group II: Rats were evaluated 5, 10, 15, 30, 60, 90, 120, and 180 min after oral treatment with buagafuran (4 mg/kg). During a typical test, place each rat on the center of the maze, facing an open arm, and allowing free exploration of the maze for a 5 min test period. An entry was defined by all four paws enter an arm. The total number of arm entries, and the time spent in each type of arm was recorded. The maze was wiped down with 10% ethanol between tests. All experiments were carried out between 9:00 am and 12:00 am.
The difference between control and treatment group was statistically analyzed by one-way analyses of variance (ANOVA). Differences with probabilities of less than 5% (p < 0.05) were regarded as significant.
The PD Plus module implemented in GastroPlus was used. Based on the parameters (R^2 and Akaike criterion) in PK-PD model simulation, the best-fitting model, Sigmoid Emax model, was employed to fit therapeutic PD response (time spent on the open arms) with the brain concentration profile of buagafuran in rat using the equation 4:
(4) E = E0+ EmaxC^γ/EC50 γ+C^γ.
where C is in ng/mL, E0 is the time spent by the control group in the open arms which is equal to 0.63, Emax is the maximum response, EC50 is the concentration of a compound at which 50% of its maximum response is observed and γ is the Hill coefficient. The set of parameter values for the model was determined by GastroPlus software. GastroPlus simulation was then used to predict the brain concentration profile and PD response profile of buagafuran in human.

On the set-up of data set [2]: method as in Zhang, 1997; Li et al., 2001; Li, 2010. As to conditions: rat liver microsomes, ref Zhang, 1997, Li et al., 2001, 2010; cited from earlier work.
A short description of data set [3]: PBPK simulation in human (GastroPlus). As to conditions: optimized by comparing fitting with observed PK data. The source says:
GastroPlus^TM software (version 8.5) was used to perform all simulations, (Simulations Plus, Inc., Lancaster, CA, United States). The absorption of oral formulations from the GI tract was modeled by the advanced compartmental absorption and transit (ACAT^TM) model implemented in GastroPlus ([Agoram et al., 2001]; [Kuentz et al., 2006]; [Huang et al., 2009]; [Zhang et al., 2011]). Input parameters in the ACAT model include three groups: formulation properties, physicochemical properties and pharmacokinetic parameters. […] The immediate release (IR) suspension for rat and IR capsule for human were selected for simulation of buagafuran in GastroPlus^TM. The ACAT model consists of nine compartments that mimic the GI tract. Each GI tract has an associated ASF. ASF is the multiplier used to scale the permeability to account for different surface-to-volume ratios, pH effects, transporter differences, and other factors that affect absorption between different compartments ([Zhang et al., 2011]). Four coefficients C1–C4 are used to calculate ASF. And there are eight basic ASF models in version 8.5. […]
The pharmacokinetic parameters of unbound fraction in plasma (FUp) were experimentally measured values. […]

The subject of data set [4] is healthy volunteers. As to conditions: cited from earlier work.
A short description of data set [5]: Biopharmaceutical classification system (BCS). The data set is classed as physicochemical.
Details of data set [6]: method as in Hu et al., 2011. As to conditions: rats, oral administration; ref Hu et al., 2011; cited from earlier work.

A value given as a limit tells only on which side of the number the result lay.

Regarding `CCCCC1=CCC[C@@]2(C)CC[C@@H]3C[C@]12OC3(C)C` [buagafuran], in data set [1] (rat EPM, oral 4 mg/kg), the “time within which activity decreased” value is at most 2 h. Besides, the “time of maximal level of activity” value in data set [1] (rat EPM, oral 4 mg/kg, p < 0.01 versus vehicle) is reported as 15 min. Further, the onset of action in data set [1] (rat EPM, oral 4 mg/kg, p < 0.05 versus vehicle) is on record as at most 10 min. Also, the “total time spent in open arms” value in data set [1] (rat EPM, oral 2, 4 and 8 mg/kg, dose-dependent, inverted U-shaped) was “significantly prolonged”. The “dose of maximum effect” value in data set [1] (rat EPM, oral, p < 0.05 versus vehicle) is recorded as 4 mg/kg. For the same compound, the EC50 (in general, the concentration needed to bring the measured effect to its halfway point) in data set [1] (time spent in open arms vs rat brain concentration, direct sigmoidal Emax model) amounted to 0.0106 µg/mL. In addition, the extraction ratio result in data set [2] was “about 50%”. In addition, in data set [3], the “input (refined) CLhep” value is given as 11.7 mL/min/kg. In addition, in data set [4] (healthy volunteers, phase I, ref Wang et al., 2011, Chen X. et al., 2013, Yang et al.), the “well tolerated multiple doses” value is listed as “up to 120 mg twice daily”. Further, in data set [4] (phase I trials, ref Zhang, 1997, Li et al., 2001), the “most common side effect” value is reported as “drowsiness”. Besides, the “biopharmaceutical classification system (BCS) class” value in data set [5] is reported as “Class II”. In addition, in data set [6], the “dose recovered as prototype in the bile” value is reported as under 0.3%, the “dose recovered as prototype in the urine” value is on record as “less than 0.1%”, the “radioactivity recovered in feces” value is reported as 28.7% and the “radioactivity recovered in urine” value is 51.2%. For the same compound, in data set [6], the total radioactivity recovered result was “about 80%”.
